Measurements as given in patent US20230000808A1, “COMPOSITIONS AND METHODS EXCLUDING OR WITH REDUCED GLUTAMINE FOR THE TREATMENT OF HEMOGLOBINOPATHIES AND THALASSEMIAS” (AXCELLA HEALTH INC., priority 2019, published 2023).

What was measured:
MCP-1 = MCP-1 in HLMVEC/TNF-α model (ELISA); type: cell-based, human; conditions: for MCP-1 expression relative to TNF Control, Mean % Change: 20×HMDB amino acids, 24 h co-treatment
Procedure: (§1) Cells were incubated at 37° C., 5% CO2 in a humidified incubator. Cells were passaged at least 1-2 times in the complete growth medium every 2-3 days until ready to plate for cell culture studies. Once ready for experiment, HLMVECs were seeded at a density of 6K cells per well of the 96 well optical microplates (Thermofisher) in the complete growth medium described above and the plated cells were incubated for 24 hours at 37° C. in a humidified incubator with 5% CO2. […] The values are published in the Human Metabolome Database (Wishart D S, et al., Nucleic Acids Res. 2007 January; 35:[…]-6) which is hereby incorporated by reference in its entirety. The medium was also supplemented with growth factors & antibiotics from EGM2-MV kit (Lonza) except the kit-provided FBS which was substituted with dialyzed FBS (Hyclone). […] Human MCP-1 was measured by ELISA (Human […] DuoSet ELISA, R&D Systems) at 1/70 dilution in 1× Reagent Diluent (Reagent Ancillary Kit 2, R&D Systems). Samples were run in triplicates. […] Samples were run in triplicates. Mean percent change in cytokine levels relative to vehicle are reported herein. Statistical analysis was done using two sample t-test.

HLMVECs = assay: Mitochondrial stress test, oxygen consumption rate in HLMVEC/TNF-α model (Seahorse); type: cell-based, human; conditions: for Maximal respiration (OCR) relative to TNF Control, Mean % Change: HLMVEC/TNF-α model, 24 h, Seahorse
Procedure: Cells were incubated at 37° C., 5% CO2 in a humidified incubator. Cells were passaged at least 1-2 times in the complete growth medium every 2-3 days until ready to plate for cell culture studies. Once ready for experiment, HLMVECs were seeded at a density of 6K cells per well of the 96 well optical microplates (Thermofisher) in the complete growth medium described above and the plated cells were incubated for 24 hours at 37° C. in a humidified incubator with 5% CO2. […] The values are published in the Human Metabolome Database (Wishart D S, et al., Nucleic Acids Res. 2007 January; 35:[…]-6) which is hereby incorporated by reference in its entirety. The medium was also supplemented with growth factors & antibiotics from EGM2-MV kit (Lonza) except the kit-provided FBS which was substituted with dialyzed FBS (Hyclone). […] Using the Agilent Seahorse XF Cell Mito Stress Test Kit (103015-100), parameters of mitochondrial function were studied by directly measuring the oxygen consumption rate (OCR) of HLMVECs on the Seahorse Flux Analyzer (Agilent Technologies) following the manufacturer's recommended protocol and prescribed controls in the kit. The co-treatment cell culture medium after 24 h incubation was removed & aliquoted for adhesion & inflammation biomarker analyses as described above and the HLMVECs in the 96-well plate were further incubated at 37° C. in a non-CO2 incubator for 45 minutes to 1 hour in the pre-warmed Seahorse assay medium supplemented with 10 mM glucose and 1 mM pyruvate but without 2 mM L-glutamine to allow unambiguous evaluation of amino acid combinations in the study. Oxygen consumption was measured at the end of incubation by the Seahorse Flux Analyzer. Four replicates for each treatment were processed for Seahorse studies. Mean percent change in maximal respiration is reported. Statistical analysis was done using one-way ANOVA two sample t-test.

IL-6 [1] = assay: IL-6 in HLMVEC/TNF-α model (ELISA); type: cell-based, human; conditions: for IL-6 expression relative to TNF Control, Mean % Change: HLMVEC/TNF-α model, 24 h, ELISA
Procedure: as §1

IL-6 [2] = assay: LPS-induced IL-6 secretion in primary human monocyte-derived macrophages (ELISA); type: cell-based; design: Donor 1 IL-6 Measurements Mean: unit not given here; conditions: for Donor 1 IL-6 Measurements Mean / Donor 2 IL-6 Measurements Mean / Donor 3 IL-6 Measurements Mean: LPS, baseline subtracted; for effect on LPS-induced IL-6 secretion: Two Way ANOVA Dunnett
Procedure: Primary human PMBC derived macrophages were seeded on day 0 at 3.0×10^4 cells per well in 96-well microplates (ThermoFisher) in Dulbecco's Modified Eagle Medium (DMEM) (Gibco) supplemented with penicillin-streptomycin (Hyclone) and 10% heat inactivated fetal bovine serum (HI-FBS) (Atlanta Bio) and incubated overnight at 37° C., 5% CO2. On day 1, cells were washed once with 150 μl per well DPBS (Gibco) and treated with 75 μl of: • a. […] The same medium described above with one amino acid at various concentrations including complete dropout. […] On day 3, the supernatant was collected and immediately frozen in −80° C. freezer. Cells were washed once with 150 μl DPBS and viability was assessed using the WST-8 Cell Proliferation Cytotoxicity Assay (Dojindo). […] Protein levels in supernatant samples were analyzed by ELISA for IL-6 and TNFα using commercially available kits (R&D Systems) according to manufacturer-supplied protocols.

sVCAM-1 = assay: Soluble VCAM-1 in HLMVEC/TNF-α model (Luminex); type: cell-based, human; conditions: for sVCAM-1 expression relative to TNF Control, Mean % Change: 20×HMDB amino acids, 24 h co-treatment
Procedure: Cells were incubated at 37° C., 5% CO2 in a humidified incubator. Cells were passaged at least 1-2 times in the complete growth medium every 2-3 days until ready to plate for cell culture studies. Once ready for experiment, HLMVECs were seeded at a density of 6K cells per well of the 96 well optical microplates (Thermofisher) in the complete growth medium described above and the plated cells were incubated for 24 hours at 37° C. in a humidified incubator with 5% CO2. […] The values are published in the Human Metabolome Database (Wishart D S, et al., Nucleic Acids Res. 2007 January; 35:D521-6) which is hereby incorporated by reference in its entirety. The medium was also supplemented with growth factors & antibiotics from EGM2-MV kit (Lonza) except the kit-provided FBS which was substituted with dialyzed FBS (Hyclone). […]). […] were run in duplicate and data was normalized to corresponding TNF-α control for respective treatments as specified in the tables. Mean percent change in level of adhesion markers are reported herein. Statistical analysis was done using two sample t-test.

HLMVEC = assay: META-rank score, composite of VCAM1, ICAM1 and IL6 in the HLMVEC model; type: cell-based, human; conditions: HLMVEC + TNF-α; lower score = more optimal; 20x HMDB / 5 mM
Procedure: The ability of single amino acids and combinations to simultaneously impact these phenotypes was measured by a META-rank score (Tables 17 and 18). META-rank score is a composite measure that considers the optimal impact on all 3 phenotypes (e.g. decrease VCAM1, ICAM1, and IL6) in the HLMVEC model.

Structure (SMILES): NC(=O)CC[C@H](N)C(=O)O [Glutamine, L-glutamine]
- MCP-1 expression relative to TNF Control, Mean % Change (MCP-1; TNF Conc 0.5 ng/mL): −11.673%
- MCP-1 expression relative to TNF Control, Mean % Change (MCP-1; TNF Conc 25 ng/mL): −12.1569%
- MCP-1 level reduction relative to the controls (MCP-1; both TNF-α treatment groups): ~12%
- Maximal respiration (OCR) relative to TNF Control, Mean % Change (HLMVECs; TNF Conc 0.5 ng/mL): −47.7527%
- Maximal respiration (OCR) relative to TNF Control, Mean % Change (HLMVECs; TNF Conc 25 ng/mL): −27.9927%
- oxygen consumption (HLMVECs; either TNF-α concentration): did not support oxygen consumption
- oxygen consumption (HLMVECs; higher TNF-α concentration of 25 ng/mL): appeared to get worse
- IL-6 expression relative to TNF Control, Mean % Change (IL-6 [1]; TNF Conc 0.5 ng/mL): −1.168%
- IL-6 expression relative to TNF Control, Mean % Change (IL-6 [1]; TNF Conc 25 ng/mL): 14.3622%
- lowering IL-6 (IL-6 [1]; either TNF-α group): largely ineffective
- Donor 1 IL-6 Measurements Mean (IL-6 [2]; Donor 1, Conc. 749 μM (baseline)): 0
- Donor 1 IL-6 Measurements Mean (IL-6 [2]; Donor 1, Conc. 3747 μM): 291.5443
- Donor 1 IL-6 Measurements Mean (IL-6 [2]; Donor 1, Conc. 11242 μM): 397.1745
- Donor 1 IL-6 Measurements Mean (IL-6 [2]; Donor 1, Conc. 22484 μM): 440.1437
- effect on LPS-induced IL-6 secretion (IL-6 [2]; Donor 1): increased
- Donor 2 IL-6 Measurements Mean (IL-6 [2]; Donor 2, Conc. 749 μM (baseline)): 2.37E−15
- Donor 2 IL-6 Measurements Mean (IL-6 [2]; Donor 2, Conc. 3747 μM): 22.52
- Donor 2 IL-6 Measurements Mean (IL-6 [2]; Donor 2, Conc. 11242 μM): 63.31
- Donor 2 IL-6 Measurements Mean (IL-6 [2]; Donor 2, Conc. 22484 μM): 34.39
- effect on LPS-induced IL-6 secretion (IL-6 [2]; Donor 2): increased
- Donor 3 IL-6 Measurements Mean (IL-6 [2]; Donor 3, Conc. 749 μM (baseline)): 3.79E−14
- Donor 3 IL-6 Measurements Mean (IL-6 [2]; Donor 3, Conc. 3747 μM): 25.35
- Donor 3 IL-6 Measurements Mean (IL-6 [2]; Donor 3, Conc. 11242 μM): 98.4903
- Donor 3 IL-6 Measurements Mean (IL-6 [2]; Donor 3, Conc. 22484 μM): 108.5158
- effect on LPS-induced IL-6 secretion (IL-6 [2]; Donor 3): significantly increased
- sVCAM-1 expression relative to TNF Control, Mean % Change (sVCAM-1; TNF Conc 0.5 ng/mL): 566.0015%
- sVCAM-1 expression relative to TNF Control, Mean % Change (sVCAM-1; TNF Conc 25 ng/mL): 755.2941%
- increase in sVCAM-1 level relative to control (sVCAM-1; both TNF-α groups): > 570%

Structure (SMILES): CC(=O)N[C@@H](CS)C(=O)O [N-Acetyl Cysteine, N-acetylcysteine]
- Donor 1 IL-6 Measurements Mean (IL-6 [2]; Donor 1, Conc. 0 X (baseline)): 0
- Donor 1 IL-6 Measurements Mean (IL-6 [2]; Donor 1, Conc. 5 X): 308.1772
- Donor 1 IL-6 Measurements Mean (IL-6 [2]; Donor 1, Conc. 10 X): −121.142
- Donor 1 IL-6 Measurements Mean (IL-6 [2]; Donor 1, Conc. 20 X): −553.802
- Donor 1 IL-6 Measurements Mean (IL-6 [2]; Donor 1, Conc. 40 X): −914.194
- effect on LPS-induced IL-6 secretion (IL-6 [2]; Donor 1): significantly reduced
- Donor 2 IL-6 Measurements Mean (IL-6 [2]; Donor 2, Conc. 0 X (baseline)): −2.4E−15
- Donor 2 IL-6 Measurements Mean (IL-6 [2]; Donor 2, Conc. 5 X): −0.7946
- Donor 2 IL-6 Measurements Mean (IL-6 [2]; Donor 2, Conc. 10 X): −9.751
- Donor 2 IL-6 Measurements Mean (IL-6 [2]; Donor 2, Conc. 20 X): −24.9999
- Donor 2 IL-6 Measurements Mean (IL-6 [2]; Donor 2, Conc. 40 X): −33.7585
- effect on LPS-induced IL-6 secretion (IL-6 [2]; Donor 2): significantly reduced
- Donor 3 IL-6 Measurements Mean (IL-6 [2]; Donor 3, Conc. 0 X (baseline)): −9.5E−15
- Donor 3 IL-6 Measurements Mean (IL-6 [2]; Donor 3, Conc. 5 X): −70.3269
- Donor 3 IL-6 Measurements Mean (IL-6 [2]; Donor 3, Conc. 10 X): −103.586
- Donor 3 IL-6 Measurements Mean (IL-6 [2]; Donor 3, Conc. 20 X): −122.656
- Donor 3 IL-6 Measurements Mean (IL-6 [2]; Donor 3, Conc. 40 X): −140.851
- effect on LPS-induced IL-6 secretion (IL-6 [2]; Donor 3): significantly reduced
- Meta-Rank (Table 18) (HLMVEC): 4
- Metarank (Table 17) (HLMVEC): 6
